Calls of active or inactive are those of the source. The calls are words filed in the database; no cut-off is given here.

In data set [1] the test system is Mus musculus. Put plainly: Antiaggressive activity in mouse assessed as reduction in foot shock induced fighting behavior by measuring fighting count at 10 mg/kg, ip (reference value: 6.6 to 24.3 counts). The data set is classed as functional.
In data set [2] the test system is Mus musculus. Put plainly: Analgesic activity in mouse assessed as time duration at which maximum change in tail flick latency occurs at 10 mg/kg (reference value: 60 mins). Type of data set: functional.
Data set [3] has as its system Mus musculus. In words: Hypotensive activity in mouse assessed as decrease in delayed blood pressure at 2.5 mg/kg. Type of data set: functional.
For data set [4], the system named is Mus musculus. Put plainly: Hypotensive activity in mouse assessed as decrease in immediate blood pressure at 2.5 mg/kg. The data set is classed as functional.
Data set [5] deals with Mus musculus. Put plainly: Modulation of cardiovascular activity in mouse assessed as potentiation of norepinephrine induced pressure response at 2.5 mg/kg. Type of data set: functional, organism-based.
In data set [6] the test system is Mus musculus. In words: Modulation of cardiovascular activity in mouse assessed as inhibition of carotid occlusion-induced pressure response at 2.5 mg/kg. The data set is classed as functional, organism-based.
Data set [7] relates to Mus musculus. Put plainly: Antidepressant activity in mouse assessed as total mean swimming time time at 5 mg/kg, ip (reference value: 2.08 to 3.12 min). The data set is classed as functional.
In data set [8] the test system is Mus musculus. In words: Hypotensive activity in mouse assessed as decrease in heart rate at 2.5 mg/kg. The data set is classed as functional.
A short description of data set [9]: Toxicity in mouse. Type of data set: organism-based. The following applies: in vivo, read-out: ALD50.
For data set [10], the system named is Mus musculus. In words: Analgesic activity in mouse assessed as maximum change in tail flick latency time at 10 mg/kg (reference value: 0.7 secs). The data set is classed as functional.
The test system of data set [11] is Mus musculus. Put plainly: Modulation of cardiovascular activity in mouse assessed as inhibition of norepinephrine induced pressure response at 2.5 mg/kg. Type of data set: functional, organism-based.
For data set [12], the species on record is Mus musculus. The following applies: dose 10.0 mg/kg.
Description: Modulation of cardiovascular activity in mouse assessed as inhibition of norepinephrine induced pressure response at 10 mg/kg
Data set [13] is filed under the species Mus musculus. The following applies: dose 10.0 mg/kg. This is another data set of the same source.
Description: Modulation of cardiovascular activity in mouse assessed as inhibition of carotid occlusion-induced pressure response at 10 mg/kg
For data set [14], the system named is Mus musculus. In words: Antidepressant activity in mouse assessed as total mean swimming time at 15 mg/kg (reference value: 2.98 min). The data set is classed as functional.

Turning to `CC1=N/C(=C\c2ccccc2)C(=O)N1c1ccc(OCC(O)CNc2ccc(Cl)cc2)cc1` (configuration not stated), the Activity came to 11.3 Counts in the data set with Mus musculus [1], 17 mmHg in the data set with Mus musculus [3], 50 mmHg in the data set on Mus musculus [4] and 6 bpm in the data set with Mus musculus [8]. Also, the figures for the Time with Mus musculus [2], with Mus musculus [7] and with Mus musculus [10] were 60 min, 1.6 min and 4.5 s, respectively. The result in the data set on Mus musculus [5] was Active. Also, in the data set on Mus musculus [6], the inhibition entry is “Active”. For the same compound, the LD50 in data set [9] is > 200 mg/kg.

For the compound `CC1=N/C(=C\c2ccccc2)C(=O)N1c1ccc(OCC2CO2)cc1` (configuration not stated), the Activity in the data set with Mus musculus [1] was 6.3 Counts; in the data set on Mus musculus [3] it was 45 mmHg; with Mus musculus [4] it was 25 mmHg; in the data set on Mus musculus [8] it was 21 bpm. In addition, the Time in the data set with Mus musculus [2] is on record as 60 min; in the data set on Mus musculus [7] it was 1.68 min; in the data set with Mus musculus [10] it was 8.5 s. For the same compound, the result in the data set on Mus musculus [5] was Active. In addition, in the data set on Mus musculus [6], the inhibition entry is “Active”. For the same compound, the LD50 in data set [9] was > 500 mg/kg.

For `O=C1/C(=C/c2ccoc2)N=C(CCN2CCOCC2)N1c1ccc(O)cc1`, the Activity is listed as 6.6 Counts with Mus musculus [1], 20 mmHg in the data set with Mus musculus [3], 35 mmHg in the data set with Mus musculus [4] and 18 bpm in the data set on Mus musculus [8]. In addition, the Time in the data set on Mus musculus [2] was found to be 30 min; with Mus musculus [7] it was 1.3 min; with Mus musculus [10] it was 5.2 s. The result in the data set with Mus musculus [5] was Active. In the data set on Mus musculus [6], the inhibition entry was “Active”. The LD50 in data set [9] is > 1000 mg/kg.

`CC1=N/C(=C\c2ccc(N(C)C)cc2)C(=O)N1c1ccc(OCC2CO2)cc1` (configuration not stated): the Activity was 10.3 Counts in the data set on Mus musculus [1], 28 mmHg in the data set on Mus musculus [3], 60 mmHg in the data set with Mus musculus [4] and 24 bpm with Mus musculus [8]. Besides, the Time in the data set on Mus musculus [2] stood at 30 min; with Mus musculus [7] it was 1.31 min; in the data set with Mus musculus [10], 3.8 s. The inhibition result in the data set on Mus musculus [6] and in the data set on Mus musculus [11] was “Active” throughout. The LD50 in data set [9] is > 500 mg/kg.

In the case of `CC1=N/C(=C\c2ccc(N(C)C)cc2)C(=O)N1c1ccc(O)cc1`, the Activity in the data set with Mus musculus [1] amounted to 1.6 Counts; with Mus musculus [3] it was 50 mmHg; in the data set on Mus musculus [4], 25 mmHg; in the data set on Mus musculus [8], 27 bpm. Besides, the Time in the data set with Mus musculus [2] was found to be 30 min; in the data set with Mus musculus [7], 0.42 min; with Mus musculus [10] it was 0.1 s. Further, the outcome in the data set with Mus musculus [5] was Active. Moreover, in the data set on Mus musculus [6], the inhibition result is “Active”. The LD50 in data set [9] was > 500 mg/kg.

As for `Clc1cccc(Cl)c1NC1=NCCN1`, the inhibition result in the data set filed under Mus musculus [12] and in the data set filed under Mus musculus [13] was “Active” throughout.

Turning to `CC1=N/C(=C\c2ccccc2)C(=O)N1c1ccc(O)cc1`, the Activity in the data set with Mus musculus [1] was determined as 8.6 Counts; with Mus musculus [3], 70 mmHg; in the data set on Mus musculus [4], 15 mmHg; in the data set with Mus musculus [8], 12 bpm. Besides, the Time came to 60 min in the data set with Mus musculus [2], 2.74 min in the data set on Mus musculus [7] and 6.4 s with Mus musculus [10]. The inhibition entry with Mus musculus [6] and in the data set with Mus musculus [11] was “Active” in each case. In data set [9], the LD50 is > 200 mg/kg.

On to `CC1=N/C(=C\c2ccoc2)C(=O)N1c1ccc(O)cc1`, for which the Activity was 4.6 Counts in the data set on Mus musculus [1], 20 mmHg in the data set with Mus musculus [3], 20 mmHg with Mus musculus [4] and 18 bpm in the data set on Mus musculus [8]. For the same compound, the Time in the data set with Mus musculus [2] was found to be 60 min; in the data set with Mus musculus [7], 2.52 min; in the data set on Mus musculus [10], 1.3 s. Besides, the result in the data set with Mus musculus [5] was inactive. Besides, the inhibition entry with Mus musculus [6] and in the data set on Mus musculus [11] was “inactive” each time. Besides, the LD50 in [9] is > 500 mg/kg.

Consider `CC1=N/C(=C\c2ccoc2)C(=O)N1c1ccc(OCC(O)CNc2ccc(Cl)cc2)cc1` (configuration not stated), for which the Activity is recorded as 10.6 Counts in the data set on Mus musculus [1], 20 mmHg with Mus musculus [3], 25 mmHg in the data set with Mus musculus [4] and 27 bpm in the data set with Mus musculus [8]. The Time worked out at 30 min in the data set on Mus musculus [2], 2.83 min in the data set with Mus musculus [7] and 6.9 s with Mus musculus [10]. In addition, in the data set on Mus musculus [5], the result was inactive. In addition, the inhibition result in the data set on Mus musculus [6] and with Mus musculus [11] was “inactive” each time. Moreover, the LD50 in data set [9] was > 500 mg/kg.

For `CC1=N/C(=C\c2ccc(N(C)C)cc2)C(=O)O1`, the Activity in the data set with Mus musculus [1] came to 7.3 Counts; in the data set with Mus musculus [3] it was 15 mmHg. In addition, the Time in the data set with Mus musculus [2] came out at 60 min; in the data set on Mus musculus [7], 1.5 min; in the data set with Mus musculus [10] it was 1.8 s. Also, the outcome in the data set on Mus musculus [4] and in the data set on Mus musculus [8] was inactive. Also, the outcome in the data set with Mus musculus [5] was Active. For the same compound, in the data set with Mus musculus [6], the inhibition entry was “Active”. The LD50 in data set [9] is > 500 mg/kg.

Turning to `CC1=N/C(=C\c2ccoc2)C(=O)N1c1ccc(OCC2CO2)cc1` (configuration not stated), the Activity with Mus musculus [1] is on record as 5 Counts; in the data set with Mus musculus [3] it was 20 mmHg; in the data set with Mus musculus [4], 30 mmHg; with Mus musculus [8], 6 bpm. For the same compound, the Time stood at 60 min in the data set with Mus musculus [2], 1.14 min in the data set with Mus musculus [7] and 6.4 s in the data set on Mus musculus [10]. Moreover, the result with Mus musculus [5] was Active. The inhibition result in the data set on Mus musculus [6] was “Active”. Further, in data set [9], the LD50 was > 1000 mg/kg.

For `CN(C)c1ccc(/C=C2\N=C(CCN3CCOCC3)N(c3ccc(O)cc3)C2=O)cc1`, the Activity in the data set with Mus musculus [1] was determined as 4.5 Counts; with Mus musculus [3], 37 mmHg; in the data set on Mus musculus [4] it was 15 mmHg; in the data set with Mus musculus [8] it was 30 bpm. In addition, the Time in the data set with Mus musculus [2] was 60 min; in the data set with Mus musculus [7] it was 0.5 min; with Mus musculus [10], 2.6 s. Moreover, the result with Mus musculus [5] was Active. For the same compound, the inhibition result with Mus musculus [6] was “Active”. Moreover, in data set [9], the LD50 was > 500 mg/kg.

For `CN(C)CCCN1c2ccccc2CCc2ccccc21` [IMIPRAMINE], the Time with Mus musculus [14] is listed as 2.33 min.

Consider `CC1=N/C(=C\c2ccccc2)C(=O)O1`, for which the Activity in the data set on Mus musculus [1] was determined as 6 Counts; with Mus musculus [3] it was 40 mmHg; in the data set with Mus musculus [4], 25 mmHg; in the data set on Mus musculus [8] it was 36 bpm. The Time is 60 min in the data set with Mus musculus [2], 1.72 min with Mus musculus [7] and 1.3 s in the data set on Mus musculus [10]. Further, in the data set on Mus musculus [5], the outcome was Active. Further, the inhibition result in the data set with Mus musculus [6] was “Active”. In [9], the LD50 was > 500 mg/kg.

For `CC1=N/C(=C\c2ccc(N(C)C)cc2)C(=O)N1c1ccc(OCC(O)CNc2ccc(Cl)cc2)cc1` (configuration not stated), the Activity stood at 4.8 Counts in the data set with Mus musculus [1], 30 mmHg in the data set with Mus musculus [3], 15 mmHg in the data set on Mus musculus [4] and 21 bpm in the data set with Mus musculus [8]. The Time with Mus musculus [2] came out at 30 min; in the data set on Mus musculus [7] it was 0.84 min; in the data set with Mus musculus [10], 0.9 s. Also, the outcome in the data set on Mus musculus [5] was Active. Moreover, the inhibition entry in the data set with Mus musculus [6] is “Active”. For the same compound, the LD50 in data set [9] is > 500 mg/kg.

For `O=C1/C(=C/c2ccccc2)N=C(CCN2CCOCC2)N1c1ccc(O)cc1`, the Activity is on record as 21.6 Counts with Mus musculus [1], 15 mmHg in the data set with Mus musculus [3], 35 mmHg in the data set with Mus musculus [4] and 15 bpm with Mus musculus [8]. In addition, the Time in the data set with Mus musculus [2] was determined as 60 min; in the data set with Mus musculus [7], 0.84 min; with Mus musculus [10] it was 4 s. Also, the result in the data set with Mus musculus [5] was inactive. For the same compound, in the data set on Mus musculus [6], the inhibition entry was “Active”. For the same compound, in the data set with Mus musculus [11], the inhibition result is “inactive”. Also, the LD50 in data set [9] was > 500 mg/kg.

Take `CC1=N/C(=C\c2ccoc2)C(=O)O1`: the Activity in the data set on Mus musculus [1] stood at 6 Counts. Moreover, the Time with Mus musculus [2] is given as 15 min; in the data set on Mus musculus [7], 2.64 min; with Mus musculus [10] it was 8.8 s. The result in the data set on Mus musculus [3], in the data set with Mus musculus [4], in the data set on Mus musculus [5] and in the data set with Mus musculus [8] was inactive. Moreover, the inhibition entry in the data set with Mus musculus [6] and in the data set on Mus musculus [11] was “inactive” throughout. The LD50 in [9] was > 500 mg/kg.

The record behind these values is ChEMBL document CHEMBL4665849, “Synthesis and biological evaluation of imidazoline derivatives as potential CNS and CVS agents” (Bioorg Med Chem Lett, 2020).
